# Publication PMC12340956, “Tranylcypromine-Based LSD1 Inhibitors as Useful Agents to Reduce Viability of” (ACS Infectious Diseases, 2025)
# Where two headings read alike, the source gives them in different places.
# Experiments:
# [1] = tested on: S. mansoni juvenile forms; test: Speed-of-action assay in juvenile forms; assay type: cell-based, Schistosoma mansoni; details: for IC50: Schistosoma mansoni, read-out: IC50 (speed of action, juvenile forms); for Percentage of effect: juvenile forms
# Excerpt: (§1) To better characterize a selection of our LSD1i in vitro, we assessed the onset of their action, defined as the time required for an observable antischistosomal effect. […] For detailed percentages of activity at each time point, refer to the Supporting Information (Tables S2 and S3 in Supporting Information).
# [2] = tested on: adult worms; test: Adult worm viability phenotypic assay, 72 h; details: Schistosoma mansoni, read-out: IC50 (adult worm viability)
# [3] = MTT cytotoxicity in RPE cells; assay type: cell-based; details: human, retinal pigment epithelial (RPE) cells
# Method: (§2) The MTT method was used to evaluate cell viability after 72 h of treatment.
# (§3) Human commercial lung diploid fibroblasts (MRC-5), and diploid retinal epithelium cells (RPE) were obtained from the American Type Culture Collection (ATCC) and kindly provided by Dr Francesca Degrassi (CNR IBPM) and maintained in minimal essential medium or DMEM-F12 medium supplemented with fetal calf serum, antibiotics, and nonessential amino acids. Cells were grown at 37 °C, in a humidified atmosphere, with 5% CO2. For experiments, cells were seeded in 200 μL of complete in each well of a 96-well microtiter plate. After 24 h, compounds were added at 5, 10, 25, and 50 μM for 72 h in sextuplicate. MTT was added (0.5 mg/mL), incubated for 4 h at 37 °C, and dissolved in 200 μL of isopropyl alcohol. Absorbance was measured at 570 nm (ELISA reader, DASIT), and cell viability was calculated as viability=(ODoftreatedcells/ODofcontrolcells)×100
# [4] = tested on: newly transformed schistosomula (NTS); test: NTS viability phenotypic screening, 72 h
# Method: For NTS and adult worms, transparent flat-bottom 96- and 24-well plates were used, respectively (Sarstedt, Switzerland). For juvenile worms, 48-well plates were used with 3–6 worms per plate and RPMI medium with 5% FCS and 1% penicillin/streptomycin. Compounds were initially tested at 20 and 10 μM in triplicate on NTS and repeated once; each well contained 30–40 NTS. Phenotypic reference points such as motility, morphology, and granularity were used to score incubated parasites’ overall viability (scores from 0 to 3). […] Identified hits from the NTS screening were tested on adult worms. […] The experiment was conducted in duplicate and repeated; standard deviations were calculated from two wells. […] For all in vitro assays, negative controls (DMSO at the highest tested concentration) were included.
# [5] = MTT cytotoxicity in MRC-5 cells; assay type: cell-based; details: human, MRC-5 lung diploid fibroblast cells
# Method: as §2, §3
# [6] = biological target: T1, human LSD1-CoREST complex (Homo sapiens, UniProt O60341); design: method as in footnote c (number not given); details: positive control; ref footnote c (number not given); read-out: IC50 (hLSD1 direct inhibition); cited from earlier work
# T1 construct: made in house
# [7] = tested on: juvenile and adult worms; design: method as in earlier work of the authors (number not given); details: ref earlier work of the authors (number not given); cited from earlier work
# [8] = tested on: NTS; test: Speed-of-action assay in NTS; assay type: cell-based, Schistosoma mansoni; details: for Percentage of effect: NTS; for IC50: Schistosoma mansoni, read-out: IC50 (speed of action, NTS)
# Excerpt: as §1
# [9] = 5 μM, read-out: percentage of viability, 72 h
# [10] = 10 μM, read-out: percentage of viability, 72 h
# [11] = 25 μM, read-out: percentage of viability, 72 h
# [12] = 50 μM, read-out: percentage of viability, 72 h
# [13] = read-out: IC50 (cell viability)
structure (smiles),measurement,setting,value
"C#Cc1ccc(C(=O)Nc2ccc(C3CC3N)cc2)cc1 (stereo not drawn) [MC3935, reference compound]",IC50,[1]; 4 h,> 20 µM
same,IC50,[1]; 24 h,> 20 µM
same,IC50,[1]; 48 h,> 20 µM
same,IC50,[1]; 72 h,17.7 µM
same,Percentage of effect,"[1]; 4 h, 1 μM",16.67%
same,Percentage of effect,"[1]; 4 h, 10 μM",23.33%
same,Percentage of effect,"[1]; 4 h, 20 μM",41.82%
same,Percentage of effect,"[1]; 24 h, 1 μM",17.24%
same,Percentage of effect,"[1]; 24 h, 10 μM",31.03%
same,Percentage of effect,"[1]; 24 h, 20 μM",38.46%
same,Percentage of effect,"[1]; 48 h, 1 μM",26.92%
same,Percentage of effect,"[1]; 48 h, 10 μM",32.69%
same,Percentage of effect,"[1]; 48 h, 20 μM",39.58%
same,Percentage of effect,"[1]; 72 h, 1 μM",31.48%
same,Percentage of effect,"[1]; 72 h, 10 μM",39%
same,Percentage of effect,"[1]; 72 h, 20 μM",56.25%
same,IC50,[2],> 10 µM
same,"viability at 72 h, 5 µM",[3]; [9],84 ± 18%
same,"viability at 72 h, 10 µM",[3]; [10],87 ± 24%
same,"viability at 72 h, 25 µM",[3]; [11],82 ± 11%
same,"viability at 72 h, 50 µM",[3]; [12],100 ± 33%
same,IC50 at 72 h,[3]; [13],> 100 µM
same,"Percentage of reduction of NTS viability, 72 h",[4]; 1 μM,33.3 ± 0.0%
same,"Percentage of reduction of NTS viability, 72 h",[4]; 10 μM,45.5 ± 4.3%
same,"Percentage of reduction of NTS viability, 72 h",[4]; 20 μM,100 ± 0.0%
same,IC50,"[4]; Schistosoma mansoni, read-out: IC50 (NTS viability)",1.95 µM
same,"viability at 72 h, 5 µM",[5]; [9],94 ± 10%
same,"viability at 72 h, 10 µM",[5]; [10],97 ± 9%
same,"viability at 72 h, 25 µM",[5]; [11],93 ± 17%
same,"viability at 72 h, 50 µM",[5]; [12],94 ± 10%
same,IC50 at 72 h,[5]; [13],> 100 µM
same,IC50,[6],0.52 µM
same,time to parasite death,[7],≤ 96 h
same,Percentage of effect,"[8]; 4 h, 10 μM",21.15%
same,Percentage of effect,"[8]; 4 h, 20 μM",23.08%
same,Percentage of effect,"[8]; 24 h, 10 μM",41.07%
same,Percentage of effect,"[8]; 24 h, 20 μM",41.07%
same,Percentage of effect,"[8]; 48 h, 10 μM",34.69%
same,Percentage of effect,"[8]; 48 h, 20 μM",57.14%
same,Percentage of effect,"[8]; 72 h, 10 μM",51.02%
same,Percentage of effect,"[8]; 72 h, 20 μM",59.18%
same,IC50,[8]; 4 h,> 20 µM
same,IC50,[8]; 24 h,> 20 µM
same,IC50,[8]; 48 h,17.6 µM
same,IC50,[8]; 72 h,11.5 µM
